Each structure is given as a SMILES string.

The values that follow come from the METLIN SMRT retention time set (Domingo-Almenara et al. 2019).

This data set in a line: gradient 5% acetonitrile 3 min, to 50% in 2 min, to 85% in 15 min, held 3 min, 100 µL/min. To be noted: column: Zorbax Extend-C18 2.1 x 50 mm; eluents: water / acetonitrile, 0.1% formic acid. An outline of the steps:
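The system's dead and dwell volumes were 40 μL and 900 μL, with a Zorbax Extend-C18 column (2.1 × 50 mm, 1.8 μm) run at 100 μL/min in water and acetonitrile containing 0.1% formic acid each. Pure standards were analyzed in mixtures of ~100 molecules by HPLC–quadrupole time-of-flight mass spectrometry in positive and negative ionization mode. Retention time was assigned from computationally picked, manually inspected adduct peaks.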
Compound `N#Cc1ccc(C(=O)N2CCN(c3cc(-c4ccc(F)cc4)[nH]n3)CC2)cc1` displayed an RP-LC retention time of 767 s.

As to `CCn1c(C)cc(=O)c2cc(C(=O)Nc3nc(C)c(C)s3)ccc21`, the RP-LC retention time stood at 578 s.

For `CCOC(=O)c1noc2ncnc(NCCCN3CCN(c4cccc(C)c4)C(C)C3)c12` (stereo not drawn), the RP-LC retention time worked out at 619 s.

`COc1ccc(CCNC(=O)C2CCCN(c3ccc(-c4ccco4)nn3)C2)cc1OC` (stereo not drawn) returned an RP-LC retention time of 618 s.

Compound `CCc1nc(N2CCC(C(=O)NCc3ccc(OC)c(OC)c3)CC2)c2c(C)scc2n1` displayed an RP-LC retention time of 650 s.

`CC1CCCN(CC(=O)Nc2nc(-c3ccccc3)cs2)C1` (stereo not drawn) gave an RP-LC retention time of 655 s.

In turn, `COc1ccc(C(C)NC(=O)Cn2c(=O)n(-c3ccccc3)c3ncccc32)cc1OC` (stereo not drawn) displayed an RP-LC retention time of 741 s.

The compound `O=C1Oc2ccccc2C(=O)/C1=C1/C=C(c2ccccc2)SS1` returned an RP-LC retention time of 1210 s.

The compound `Cc1ccc(-c2nnc(-c3cccc(S(=O)(=O)NC(C(=O)O)C(C)C)c3)o2)cc1` (stereo not drawn) registered an RP-LC retention time of 874 s.

Consider `Cc1ccc(Nc2ccc(NC(=O)C3CCCC3)cc2)nn1`, for which the RP-LC retention time is 566 s.

For the compound `CCN(CC)S(=O)(=O)c1ccc(NC(=O)c2oc3c(c2C)C(=O)CC(C)(C)C3)cc1`, the RP-LC retention time amounted to 982 s.

Regarding `Cc1ccc(C(=O)N2CCCC(c3ccnc(Nc4ccc(F)cc4)n3)C2)s1` (stereo not drawn), the RP-LC retention time came to 1020 s.

For `Cc1nc(-c2cccc(C(=O)N3CCCc4ccccc43)c2)no1`, the RP-LC retention time was determined as 900 s.

`CCOc1ccc(CCNC(=O)c2c(C)oc3c2C2=NCCN2C=N3)cc1OCC` had an RP-LC retention time of 651 s.

`CCOc1ccc(OCC)c(N2C=C(C#N)S(=O)(=O)c3cc(F)ccc32)c1`: the RP-LC retention time came to 1030 s.

`Cc1ccc(-c2nc(Nc3ccccc3Cl)sc2CC(=O)O)cc1` displayed an RP-LC retention time of 1040 s.

Take `Cn1nc(C(=O)N2CC(c3nc(-c4cccs4)no3)C2)ccc1=O`: the RP-LC retention time came to 639 s.

`Cc1ccc(N2C(=O)CN(S(=O)(=O)c3ccc(C)cc3)CC2(C)C(=O)NC2CCCC2)cc1` (stereo not drawn) showed an RP-LC retention time of 983 s.

With `Cc1onc(C(=O)N2CCCCCCNC(=O)[C@@H]3CCCC[C@@H]32)c1CN1CCCCC1`, the RP-LC retention time amounted to 686 s.

`O=C(Cn1ccn2nc(-c3ccc(F)cc3)c(CO)c2c1=O)Nc1ccc2c(c1)OCCO2`: the RP-LC retention time is 786 s.

Compound `CSc1ccc(-c2nc3cc(C)ccn3c2Nc2ccccc2C)cc1` gave an RP-LC retention time of 790 s.

On to `O=C(NCCN1CCN(Cc2ccccc2)CC1)c1cc(=O)n2c(nc3ccccc32)s1`, for which the RP-LC retention time turned out to be 649 s.

In the case of `Cc1cc(=O)n2c3ccccc3n(CC(O)CN3CCN(c4ccccc4)CC3)c2c1C#N` (stereo not drawn), the RP-LC retention time stood at 670 s.

As for `O=C(NCCN1CCOCC1)C1c2ccccc2CC(=O)N1Cc1ccccc1` (stereo not drawn), the RP-LC retention time stood at 603 s.

`COC(=O)c1ccc(-c2nc3cnccn3c2Nc2ccc(Cl)cc2)cc1` gave an RP-LC retention time of 953 s.

The compound `CCc1ccc(S(=O)(=O)N2CCC(C(=O)NCc3csc(-c4cccs4)n3)CC2)cc1` registered an RP-LC retention time of 987 s.

In turn, `CCCc1ccc(S(=O)(=O)N2CCN(c3cnn4c(C)nnc4c3)CC2)cc1` came in with an RP-LC retention time of 805 s.

As for `COc1cc(OC)c(NC(=O)N2CCc3c(c(C(=O)N4CCOCC4)nn3C)C2)cc1Cl`, the RP-LC retention time was 692 s.

For `Cc1ccc(N2CC(c3nc(-c4ccc(N(C)C)cc4)no3)CC2=O)cc1Cl` (stereo not drawn), the RP-LC retention time was found to be 1160 s.

Consider `O=C(CCCCCCC(=O)Nc1ccccc1)NO`, for which the RP-LC retention time came to 660 s.

Consider `CCC1CCCCN1Cc1nc(Cn2ccn3nc(-c4ccc(F)cc4)cc3c2=O)no1` (stereo not drawn), for which the RP-LC retention time is 704 s.

For the compound `Cc1ccc(S(=O)(=O)N2C(=O)CCC2C(=O)N(C)C2CCCCC2)cc1C` (stereo not drawn), the RP-LC retention time came to 1010 s.

`Cc1noc(CN2CCN(C3CCN(Cc4ccc(C(F)(F)F)cc4)C3)C2=O)n1` (stereo not drawn) yielded an RP-LC retention time of 645 s.

The compound `COc1cccc2c1OC1(C)CC2NC(=O)N1c1cccc(C(=O)N2CCN(c3ccccn3)CC2)c1` (stereo not drawn) showed an RP-LC retention time of 588 s.

Turning to `Cc1noc(C2CN(C(=O)CCC3CCCC3)CC23CCOCC3)n1` (stereo not drawn), the RP-LC retention time came to 814 s.

The compound `CCCc1noc(-c2cccn3c(CC(=O)N4CCSCC4)nnc23)n1` registered an RP-LC retention time of 653 s.

`Cc1nn(C2CCS(=O)(=O)C2)c(C)c1N1CCN(S(=O)(=O)c2cccs2)CC1` (stereo not drawn): the RP-LC retention time stood at 752 s.

For the compound `O=C(Nc1ccc(F)cc1)N1CCN(c2ccc(C(F)(F)F)cn2)CC1`, the RP-LC retention time amounted to 921 s.

For the compound `O=C(N[C@H]1C[C@@H]2C[C@H]1N(C(=O)c1ccccc1Cl)C2)c1ccccc1`, the RP-LC retention time stood at 717 s.

The compound `O=C(c1cc2c(s1)-c1ccsc1CC2)N1CCN(c2ccccn2)CC1` registered an RP-LC retention time of 698 s.

`CCCN(CC1CCOC1)S(=O)(=O)Cc1ccccc1F` (stereo not drawn): the RP-LC retention time came to 878 s.

Take `CC(C)N1C(=O)c2cccnc2Sc2cc(NC(=O)c3cccnc3)ccc21`: the RP-LC retention time worked out at 662 s.

In the case of `Cc1nn2c(S(=O)(=O)NCc3cccs3)c(C)nc2s1`, the RP-LC retention time amounted to 704 s.

For `Cc1cccc(Nc2c(-c3ccc4c(c3)OCO4)nc3cnccn23)c1C`, the RP-LC retention time turned out to be 928 s.

For the compound `CCOC(=O)c1ccc(NC(=O)N2CCN(CC)c3ncccc32)cc1`, the RP-LC retention time amounted to 640 s.

As for `O=C1Nc2ccccc2SC1C(=O)N1CCC(C(=O)N2CC=C(c3ccccc3)CC2)CC1` (stereo not drawn), the RP-LC retention time was found to be 831 s.

`Cc1cc(C)cc(NC(=O)C(=O)NCC(c2ccc3c(c2)OCO3)N2CCOCC2)c1` (stereo not drawn): the RP-LC retention time came out at 613 s.

`Cc1nc(-c2nc3c(s2)CN(C(=O)COc2ccc(Cl)cc2)CC3)cs1` had an RP-LC retention time of 922 s.

`CCCNC(=O)CCc1c(C)n(CC)c2nc(-c3ccccc3)nn2c1=O` returned an RP-LC retention time of 697 s.

For the compound `COc1ccc(NC(=O)Cn2c(=O)n(-c3ccccc3)c3ncccc32)c(OC)c1`, the RP-LC retention time is 808 s.

`O=C(NCCCN1CCCC1=O)c1ccc(CN2CC(=O)N3CCCC3C2=O)cc1` (stereo not drawn) came in with an RP-LC retention time of 583 s.

`Cc1ccc(C(=O)NCCc2nc3cccnc3n2CC(C)C)cc1` came in with an RP-LC retention time of 716 s.

Consider `Cc1ccc2[nH]cc(CCN3CC(C(=O)Nc4cccc(F)c4)CC3=O)c2c1` (stereo not drawn), for which the RP-LC retention time is 842 s.

In turn, `O=C(NCc1ccco1)N1CC2CN(S(=O)(=O)c3cccc(F)c3)CC(C1)O2` had an RP-LC retention time of 744 s.

The compound `COCCn1c(C)c(C)c(S(=O)(=O)c2ccc(F)cc2)c1NC(=O)C1CCCO1` (stereo not drawn) showed an RP-LC retention time of 839 s.

`Cc1ccc(CN(C)Cc2cc(=O)n3ccccc3n2)cc1` had an RP-LC retention time of 606 s.

As for `O=C(NCc1cscn1)C1CCN(S(=O)(=O)c2cccc(C(F)(F)F)c2)CC1`, the RP-LC retention time is 787 s.

Consider `CCc1cccc(NC(=O)N2c3ccccc3CC2c2nc(CCOC)no2)c1` (stereo not drawn), for which the RP-LC retention time amounted to 1060 s.
